{
  "source": "patent US20260232579A1",
  "about": "(Aspire Biopharma, Inc., priority 2023, published 2026)",
  "key": {"[1]": {"experiment": "Henderson-Hasselbalch calculation of ionized to non-ionized aspirin at saliva pH", "source_text": "In its conjugate base/ionized form, aspirin is unable to efficiently cross the mucous membranes in the oral cavity to enter the blood stream, rendering oral mucosal (e.g., sublingual and/or buccal) delivery of ionized aspirin inefficient. The pH of saliva in the oral cavity ranges between 6.2 to 7.6 (Dawood, […]. Saliva and Oral Health. Int. J. Adv. Res. Biol. Sci. 2018, 5, 1-45) depending on the individual, with an average pH of 6.7. The Henderson-Hasselbalch equation, represented by Equation 2 below, provides the ratio of conjugate base to acid at a given pH of an acid having a given pKa. […] Exemplary calculations are provided below. Using the lower saliva pH limit of 6.2 in equation 1: Using the upper saliva pH limit of 7.6 in equation 1: […]"}, "[2]": {"experiment": "Determination of pH of aspirin samples (USP <791>)", "format": "physicochemical", "settings": "1861.9 mg sample in 5.0 mL USP water, stirred 15 minutes", "method": "Determination of the pH of a solution of a formulation disclosed herein may be accomplished by methods known in the art, e.g., as described herein and by standard protocols, e.g., by protocols described in the United States Pharmacopoeia, Chapter <791>.\nThe pH values of aspirin API and batch nos. F22006-001, F22006-004, F22006-002, F22006-003, and F22006-005 were determined using standard protocols as described in the United States Pharmacopoeia, Chapter <791>. […] The pH of the mixture was measured using a Mettler Toledo pH meter."}},
  "data": [
    {"compound": "CC(=O)Oc1ccccc1C(=O)O", "note": "[Aspirin, 2-acetoxybenzoic acid]", "values": [
      {"measurement": "ionized aspirin molecules for every one molecule of non-ionized aspirin", "setting": "[1]; average saliva pH value of 6.7, pKa […]", "value": 1584},
      {"measurement": "ionized aspirin molecules for every one molecule of non-ionized aspirin", "setting": "[1]; lower saliva pH limit of 6.2, pKa […]", "value": 501},
      {"measurement": "ionized aspirin molecules for every one molecule of non-ionized aspirin", "setting": "[1]; upper saliva pH limit of 7.6, pKa […]", "value": 12589},
      {"measurement": "pH", "setting": "[2]", "value": 2.62}
    ]}
  ]
}
